In patent publication US20210353579A1, “HIGH PENETRATION COMPOSITIONS AND USES THEREOF” (Techfields Pharma Co., Ltd., priority 2006, published 2021):
Like-named read-outs stand apart in the source and are kept apart here.

Assays:
[1] = system: mice; experiment: Analgesic activity, acetic acid writhing; type: in vivo
Procedure: The prodrug compounds are administered either transdermally or orally. The parent compounds are administered orally. The number of writhing that occurred when mice are administered the acetic acid solution are counted, and the rate of inhibition based on the control group which was not pretreated with any test compounds is calculated. […] The A group is the control group.

[2] = Plasma levels after transdermal administration to hairless mice; type: in vivo; settings: mouse, in vivo
Procedure: Tested compounds (20% solution or suspension in 1 mL isopropanol) are administered transdermally to the skin of intact hairless mice. The plasma levels of the parent compounds are determined by HPLC.

[3] = system: rat;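 further: acute toxicity in rats expressed as LD50, determined for both prodrugs and their parent compounds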
Procedure: The acute toxicity of the prodrug compounds and parent compounds are measured by LD50 of rat.

[4] = system: rats; experiment: Antipyretic activity, E. coli suspension as pyrogen; type: in vivo; settings: in °C (unit assumed)
Procedure: Rats are administered with sterilized E. coli suspension as a pyrogen. Each group of rats are administered with a prodrug compounds or parent compounds at a dosage specified below. The prodrug compounds are administered either orally or transdermally. The parent compounds are administered orally.

[5] = system: human skin tissue; settings: pH 7.4
[6] = Solubility in water / aqueous solubility of HPPs and parent drugs; settings: product as prepared in Example 1
[7] = 100 mg/kg transdermally, 30 min before acetic acid
[8] = 50 mg/kg orally, 30 min before acetic acid
[9] = 50 mg/kg transdermally, 30 min before acetic acid
[10] = 100 mg/kg orally, 30 min before acetic acid
[11] = 100 mg/kg transdermally, 60 minutes before acetic acid

Structure (SMILES) | % (rate of writhing inhibition) [1, 7] [%] | No. of Writhing [1, 7] | Peak plasma concentration of parent compound after prodrug compound [2] [mg/L] | t, time to peak plasma level of parent compound after prodrug compound [2] [min] | LD50 of HPP ([3]; rats) [mg/kg] | body temperature, t = 0 min ([4]; 100 mg/kg transdermally) | body temperature, t = 90 min ([4]; 100 mg/kg transdermally) | body temperature, t = 180 min ([4]; 100 mg/kg transdermally) | body temperature, t = 270 min ([4]; 100 mg/kg transdermally) | In vitro penetration rate (apparent flux), prodrug compounds [5] [μg/cm^2/h] | other results
CC(=O)O.CCN(CC)CCOC(=O)C(C)c1ccc2cc(OC)ccc2c1 (centres unmarked) [diethylaminoethyl 2-(6-methoxy-2-naphthyl)propionate.AcOH] | 51 | 17.1 | 2000 | 50 | 2200 | 37.33 ± 0.07 | 36.80 ± 0.06 | 36.72 ± 0.05 | 36.50 ± 0.08 | 3500 | –
CC(=O)O.CCN(CC)CCOC(=O)C(C)c1ccc(CC(C)C)cc1 (centres unmarked) [diethylaminoethyl 2-(ρ-isobutylphenyl) propionate.AcOH] | 71 | 9.8 | 120 | 30 | 1800 | 37.27 ± 0.06 | 36.30 ± 0.06 | 36.35 ± 0.08 | 36.31 ± 0.07 | 1250 | % (rate of writhing inhibition) [1, 8]: 59%; No. of Writhing [1, 8]: 14.1; % (rate of writhing inhibition) [1, 9]: 61%; No. of Writhing [1, 9]: 13.3; % (rate of writhing inhibition) [1, 10]: 70%; No. of Writhing [1, 10]: 10.2; body temperature, t = 0 min ([4]; 100 mg/kg orally): 37.22 ± 0.07; body temperature, t = 90 min ([4]; 100 mg/kg orally): 36.40 ± 0.06; body temperature, t = 180 min ([4]; 100 mg/kg orally): 36.50 ± 0.05; body temperature, t = 270 min ([4]; 100 mg/kg orally): 36.45 ± 0.08; body temperature, t = 0 min ([4]; 150 mg/kg orally): 37.24 ± 0.08; body temperature, t = 90 min ([4]; 150 mg/kg orally): 36.30 ± 0.05; body temperature, t = 180 min ([4]; 150 mg/kg orally): 36.35 ± 0.07; body temperature, t = 270 min ([4]; 150 mg/kg orally): 36.38 ± 0.08; body temperature, t = 0 min ([4]; 150 mg/kg transdermally): 37.26 ± 0.05; body temperature, t = 90 min ([4]; 150 mg/kg transdermally): 36.25 ± 0.05; body temperature, t = 180 min ([4]; 150 mg/kg transdermally): 36.30 ± 0.07; body temperature, t = 270 min ([4]; 150 mg/kg transdermally): 36.20 ± 0.05
CC(=O)O.CCN(CC)CCOC(=O)c1cccnc1Nc1cccc(C(F)(F)F)c1C [diethylaminoethyl 2-[[2-methyl-3-(trifluoromethyl)phenyl]amino]-3-pyridinecarboxylate.AcOH] | – | – | 20 | 50 | 1100 | 37.23 ± 0.06 | 36.69 ± 0.06 | 36.52 ± 0.08 | 36.40 ± 0.07 | 1700 | % (rate of writhing inhibition) [1, 11]: 55%; No. of Writhing [1, 11]: 15.7
CC(=O)O.CCN(CC)CCOC(=O)c1cccnc1Nc1cccc(C(F)(F)F)c1 [diethylaminoethyl 2-[[3-(trifluoromethyl)phenyl]amino]-3-pyridinecarboxylate.AcOH] | – | – | 20 | 50 | 750 | 37.25 ± 0.07 | 36.82 ± 0.06 | 36.70 ± 0.05 | 36.50 ± 0.08 | 1800 | % (rate of writhing inhibition) [1, 11]: 57%; No. of Writhing [1, 11]: 15.2
CC(=O)O.CCN(CC)CCOC(=O)Cc1cccc(C(=O)c2ccccc2)c1N [diethylaminoethyl 2-amino-3-benzoylbenzeneacetate.AcOH] | 61 | 13.8 | 20 | 50 | 1000 | 37.22 ± 0.06 | 36.65 ± 0.05 | 36.62 ± 0.08 | 36.58 ± 0.07 | 800 | –
CC(=O)O.CCN(CC)CCOC(=O)C(C)c1ccc(N2Cc3ccccc3C2=O)cc1 (stereo not drawn) [diethylaminoethyl 4-(1,3-dihydro-1-oxo-2H-isoindol-2-yl)-α-methylbenzeneacetate.AcOH] | 62 | 13.2 | 2000 | 50 | 3500 | 37.28 ± 0.06 | 36.65 ± 0.06 | 36.58 ± 0.08 | 36.56 ± 0.07 | 4200 | –
CC(=O)O.CCN(CC)CCOC(=O)C1CCc2cc(C3CCCCC3)c(Cl)cc21 (centres unmarked) [diethylaminoethyl 6-chloro-5-cyclohexyl-2,3-dihydro-1H-indene-1-carboxylate.AcOH] | 57 | 15.2 | 2000 | 50 | 200 | 37.25 ± 0.06 | 36.63 ± 0.06 | 36.55 ± 0.08 | 36.51 ± 0.07 | 4000 | –
CC(=O)O.CCN(CC)CCOC(=O)CC1=C(C)/C(=C/c2ccc([S+](C)[O-])cc2)c2ccc(F)cc21 (centres unmarked) [diethylaminoethyl (Z)-5-fluoro-2-methyl-1-[(4-methylsulfinyl)phenylmethylene]-1H-indene-3-acetate.AcOH] | 59 | 14.2 | 20 | 50 | 500 | 37.28 ± 0.06 | 36.65 ± 0.05 | 36.62 ± 0.08 | 36.58 ± 0.07 | 900 | –
CC(=O)O.CCN(CC)CCOC(=O)C(Cl)c1ccc(C2CCCCC2)c(Cl)c1 (stereo not drawn) [diethylaminoethyl α,3-dichloro-4-cyclohexylbenzeneacetate.AcOH] | 57 | 15.2 | 2000 | 50 | 600 | 37.25 ± 0.06 | 36.75 ± 0.05 | 36.62 ± 0.08 | 36.58 ± 0.07 | 3800 | –
CC(=O)O.CCN(CC)CCOC(=O)C(C)c1ccc(C(=O)c2cccs2)cc1 (stereo not drawn) [diethylaminoethyl α-methyl-4-(2-thienylcarbonyl)benzeneacetate.AcOH] | 55 | 15.7 | 2000 | 50 | 800 | 37.28 ± 0.06 | 36.65 ± 0.06 | 36.58 ± 0.08 | 36.45 ± 0.07 | 3000 | –
C=C(C)CNc1ccc(C(C)C(=O)OCCN(CC)CC)cc1.CC(=O)O (stereo not drawn) [diethylaminoethyl α-methyl-4-[(2-methyl-2-propenyl)amino]benzeneacetate.AcOH] | 55 | 15.6 | 2000 | 50 | 1100 | 37.23 ± 0.06 | 36.69 ± 0.06 | 36.52 ± 0.08 | 36.40 ± 0.07 | 3500 | –
CC(=O)O.CCN(CC)CCOC(=O)C(C)c1ccc2c(c1)Cc1cccnc1O2 (stereo not drawn) [diethylaminoethyl α-methyl-5H-[1]benzopyrano[2,3-b]pyridine-7-acetate.AcOH] | 54 | 16.1 | 2000 | 50 | – | 37.27 ± 0.06 | 36.76 ± 0.05 | 36.65 ± 0.08 | 36.49 ± 0.07 | 3800 | LD50 of HPP ([3]; rat, in vivo): 750 mg/kg
CC(=O)O.CN(C)CCOC(=O)Cc1ccccc1Nc1c(Cl)cccc1Cl [dimethylaminoethyl 2[(2,6-dichlorophenyl)amino] benzene acetate.AcOH] | – | – | – | – | – | – | – | – | – | – | Solubility in water [6]: 410 mg/mL; LD50 of HPP ([3]; rat, in vivo): 700 mg/kg
